Experiment [1] has as its system Staph. aureus clinical isolates. Description: PAFC cell count of clinical isolates in presence of daptomycin, dyed SP1 phage label. Format: cell-based. As to the method:
All strains were tested in the presence and absence of daptomycin. In a number of studies hereof, cultures were diluted into fresh media and regrown for 2 hours in the presence and absence of […] of daptomycin. Each sample was then incubated at room temperature for 10 minutes with multiple dyed phage per bacterial cell. Incubated samples were then processed through PAFC system 100 and number of detected cells recorded. Isolates were tested in triplicated for both the plate reader and PAFC system.
(§1) Sample preparation. Clinical isolates of Staph. aureus were obtained from the Urisch laboratory at the UPMC Department of Othopaedic Surgery. Isolates were de-identified according to IRB protocol and were stored in 50% glycerol solution at −80° C. Isolates were streaked for single colonies on mannitol salt agar (MSA) plates and cultures were grown in mannitol salt broth, shaking at 36.5° C. Overnight cultures were then diluted into fresh media and regrown for 2 hours to ensure that bacteria were entering exponential growth phase. Exponentially growing cultures were mixed with media or daptomycin in a 1:1 ratio. Daptomycin was added to 0.5 ml of culture to a final concentration of 0.25 μg/ml. Identical cultures were used in all experiments using PAFC and BioTek HI plate reader. For photoacoustic testing, bacteriophage SP1 was added to a concentration of 1000 phage per bacterial cell. Growth curves were performed for 16 hours with measurements taken once every minute.
Photoacoustic Flow Cytometry. […] Laser beam energy was maintained and measured between 1.9 and 2.1/mJ for all PAFC experiments. […] The laser beam was assumed Gaussian in shape and fluence was calculated to be 0.014 mJ/cm^2 and detection volume was determined to be 0.04 μL.
All strains were tested in the presence and absence of daptomycin. […] Incubated samples were then processed through the PAFC system and number of detected cells recorded. Isolates were tested in triplicate for both the plate reader and PAFC system.

Experiment [2] has the same test system. Put plainly: Growth curves (optical density) of clinical isolates in presence of daptomycin. It counts as cell-based. As to the method:
Growth curves of multiple clinical isolates of the representative bacteria S. aureus as illustrated in FIGS. 4A through 4D were determined using a BioTek Synergy HI plate reader (available from BioTek Instruments (of Agilent Technologies), Winooski, Vermont). S. aureus isolates growth rates were tested in the presence and absence of the representative antibiotic daptomycin. Differential growth rates were identifiable after two hours of the sixteen-hour growth curve. Two-hour differentiation was confirmed by Newton-Raphson root finding method.
as §1
Treated and control cultures were placed in a round bottom 96 well culture plate (Falcon microtest 96 well plate 35077, ThermoFisher, Waltham, Massachusetts) and were placed into the BioTek HI plate reader. Optical density (OD) measurements were taken every minute at 600 nm wavelength. Between measurements, the plate was shaken at 100 rpm and maintained at 36.5+C allowing for bacterial growth. The two-hour time point was determined to be sufficient to differentiate the growth rates. Additionally, multiple replicates of each bacterial strain were grown at 36.5° C. in the BioTek HI plate reader and 100 μL was removed and plated on MSA plates every 10 minutes. Growth curves were made directly from these titers for each strain to give a quantifiable number of bacterial cells for each OD.

The subject of experiment [3] is VRSA. The note with it: cited from earlier work.
Experiment [4] has as its system MRSA. The note with it: cited from earlier work.
The subject of experiment [5] is S. aureus clinical isolates. Description: Photoacoustic flow cytometry (PAFC) detections of clinical isolates incubated with oxacillin. It counts as cell-based, Staphylococcus aureus. Particulars: for Treated Detections: oxacillin 1 μmg/ml, 2 hours. Here is the method:
In a representative study, total of thirteen samples were tested for the mecA gene using PCR, thus determining their methicillin resistance before photoacoustic testing. Streaks of each S. aureus strain were grown on mannitol salt agar plates. Single colonies from each streak plate were used to regrow strains in mannitol salt broth for 2 hours in a shaking water bath at 36.5 C. That period ensured cells were growing and entering exponential growth phase. Oxacillin was added at a final concentration of 1 μmg/ml to half of each culture and grown for an additional 2 hours. Before processing through PAFC system, 100 μl from each culture was removed and used for growth analysis in an HI plate reader (available from Biotek of Winooski, Vermont). Growth curves were made for each culture by taking the optical density of each treated and untreated culture every minute over a 16-hour period. As described above, it was determined that two hours of antibiotic treatment was sufficient to determine differential growth rates from prior experimentation. Prior to performing photoacoustic testing, treated and untreated samples were incubated side-by-side for two hours. Photoacoustic testing of treated and untreated samples for each isolate were alternated, so that both samples were tested within twenty minutes to allow for similar growth times. Thus, total bacteria number could be compared properly.
To interpret the photoacoustic data provided by the flow cytometer, k-means clustering was used to guide the differentiation between methicillin resistant and susceptible samples. […] K-means, like other clustering methods, takes data points in a space of one or more dimensions and determines natural groupings of those points by proximity. Given a number of clusters, k, the algorithm separates all points into that number of groups. In a representative study, there was an interest in identifying only resistant and susceptible groups. Thus, k=2 was chosen.
The ratio of treated detection numbers over untreated numbers was determined, resulting in 13 numbers which were approximately in the range of 0 to 1. Lower numbers indicate that oxacillin was effective in decreasing the S. aureus population. However, there was no ad hoc threshold for determining antibiotic resistance. K-means with two clusters was applied to the data set using the MATLAB programming language (available from Math Works of Natick, Massachusetts). The MATLAB function, kmeans, uses Lloyd's algorithm. For simplicity, Euclidean distance was used for measuring and establishing iterative clusters.
Because the sample size was relatively small and the distribution was not obviously Gaussian, a nonparametric test was performed to compare the means of the bacterial counts before and after treatment with oxacillin. Using a Wilcoxon matched pairs signed rank test, a p-value of 0.0007 was calculated.
Photoacoustic Flow Cytometry. A 1000 μm optical fiber with numerical aperture of 0.39 (Thorlabs, Newton, New Jersey) was used to deliver laser light at 532 nm with a 5 ns pulse duration from a Nd:YAG laser (Litron Nano, Boseman, Montana). Laser beam energy was maintained and measured between 1.9 and 2.1/mJ for all PAFC experiments. The optical fiber was placed 5 mm away from a quartz tube (Quartz 10 QZ, Charles Supper, Natick, Massachusetts) with 10 μm thick walls. Samples were pumped through the quartz tube inside a 3D printed flow chamber. The laser beam was assumed Gaussian in shape and fluence was calculated to be 0.014 mJ/cm^2 and detection volume was determined to be 0.04 μL.
(In general: Flow cytometry measures light scatter and fluorescence of single cells or particles in a stream.)

Molecules are shown by their SMILES.

Turning to `CCCCCCCCCC(=O)N[C@@H](Cc1c[nH]c2ccccc12)C(=O)N[C@H](CC(N)=O)C(=O)N[C@@H](CC(=O)O)C(=O)N[C@@H]1C(=O)NCC(=O)N[C@@H](CCCN)C(=O)N[C@@H](CC(=O)O)C(=O)N[C@H](C)C(=O)N[C@@H](CC(=O)O)C(=O)NCC(=O)N[C@H](CO)C(=O)N[C@@H]([C@H](C)CC(=O)O)C(=O)N[C@@H](CC(=O)c2ccccc2N)C(=O)O[C@@H]1C` [daptomycin], the results for the “cells detected by PAFC, treated vs untreated” value in experiment [1] (heterogeneous resistant strains) and in experiment [1] (homogeneous resistant strains) were “intermediary number of cells detected” and “identical or nearly identical numbers of cells”, respectively. Moreover, the “cell count via photoacoustic detection” value in experiment [1] (susceptible clinical isolate, FIG. 4A, two-hour timepoint) is “zero detection”. Also, the “growth (optical density) treated vs untreated” value in experiment [2] (heterogeneous strain A, FIG. 4C) is “delay of exponential growth”; in experiment [2] (heterogeneous strain B, FIG. 4D), “no delay in initial growth is observed but severe retardation of growth starting at 1.5 hours”; in experiment [2] (resistant clinical isolate, FIG. 4B, 2 h and 16 h), “no delay or inhibition of growth”; in experiment [2] (susceptible clinical isolate, FIG. 4A, 2 h and 16 h), “complete inhibition of growth”. For the same compound, the results for the MIC in experiment [3] and in experiment [4] were greater than 4 µg/mL and 0.25 to 1 µg/mL, respectively.
Take `Cc1onc(-c2ccccc2)c1C(=O)N[C@@H]1C(=O)N2[C@@H]1SC(C)(C)[C@@H]2C(=O)O` [oxacillin]: the “Treated Detections” value was 404 in experiment [5] (isolate B1899 (mecA Yes)); 44 in experiment [5] (isolate K3237 (mecA No)); 7 in experiment [5] (isolate K3251 (mecA No)); 53 in experiment [5] (isolate K3255 (mecA No)); 135 in experiment [5] (isolate K3261 (mecA Yes)); 10 in experiment [5] (isolate K3262 (mecA No)). The “Treated Detections” value in experiment [5] (isolate K3266 (mecA No)) is 18; in experiment [5] (isolate K3268 (mecA Yes)), 110; in experiment [5] (isolate K3270 (mecA Yes)), 134; in experiment [5] (isolate K3279 (mecA Yes)), 175; in experiment [5] (isolate K3280 (mecA Yes)), 179; in experiment [5] (isolate K3282 (mecA Yes)) it was 689. Besides, the “Treated Detections” value in experiment [5] (isolate K3287 (mecA No)) is on record as 2. In addition, the “mean ratio of treated to untreated” value turned out to be 0.10 in experiment [5] (second subgroup, markedly different growth) and 0.87 in experiment [5] (subgroup with similar growth rates (isolates with mecA gene)).

The values above are taken from US20250002969A1, “DISCRIMINATION OF ANTIBIOTIC RESISTANT AND SENSITIVE SAMPLES” (priority 2021, published 2025).
